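Growth conditions: 96-well plates. Treatment: test compound, 48 hours, 5 concentrations. Analysis: linear interpolation between bracketing concentrations; unreached endpoints set to highest concentration. GI50 marks 50% less growth. TGI denotes the concentration required for complete inhibition of growth.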
Key:
Assay in all cases: NCI tumour cell line growth inhibition, 48 h
[1] = system: 786-0 renal
[2] = system: A498 renal
[3] = system: A549 NSCLC
[4] = system: ACHN renal
[5] = system: BT-549 breast
[6] = system: CAKI-1 renal
[7] = system: CCRF-CEM leukemia
[8] = system: COLO 205 colon
[9] = system: DU-145 prostate
[10] = system: EKVX NSCLC
[11] = system: HCC-2998 colon
[12] = system: HCT-116 colon
[13] = system: HCT-15 colon
[14] = system: HL-60(TB) leukemia
[15] = system: HOP-62 NSCLC
[16] = system: HOP-92 NSCLC
[17] = system: HS 578T breast
[18] = system: HT29 colon
[19] = system: IGROV1 ovarian
[20] = system: K-562 leukemia
[21] = system: KM12 colon
[22] = system: LOX IMVI melanoma
[23] = system: M14 melanoma
[24] = system: MALME-3M melanoma
[25] = system: MCF7 breast
[26] = system: MDA-MB-231 breast
[27] = system: MDA-MB-435
[28] = system: MDA-MB-468 breast
[29] = system: MOLT-4 leukemia
[30] = system: NCI-H226 lung
[31] = system: NCI-H23 lung
[32] = system: NCI-H460 lung
[33] = system: NCI-H522 lung
[34] = system: NCI/ADR-RES ovarian
[35] = system: OVCAR-3 ovarian
[36] = system: OVCAR-4 ovarian
[37] = system: OVCAR-5 ovarian
[38] = system: OVCAR-8 ovarian
[39] = system: PC-3 prostate
[40] = system: RPMI-8226 leukemia
[41] = system: RXF 393 renal
[42] = system: SF-268 CNS
[43] = system: SF-295 CNS
[44] = system: SF-539 CNS
[45] = system: SK-MEL-2 melanoma
[46] = system: SK-MEL-28 melanoma
[47] = system: SK-MEL-5 melanoma
[48] = system: SK-OV-3 ovarian
[49] = system: SN12C renal
[50] = system: SNB-19 CNS
[51] = system: SNB-75 CNS
[52] = system: SR leukemia
[53] = system: SW-620 colon
[54] = system: T-47D breast
[55] = system: TK-10 renal
[56] = system: U251 CNS
[57] = system: UACC-257 melanoma
[58] = system: UACC-62 melanoma
[59] = system: UO-31 renal

## O=C(c1ccccc1)c1ccc2nc(-c3ccccc3Br)[nH]c2c1
[1]
  GI50: 2.37 µM
  TGI: 4.77 µM
[2]
  GI50: 17.3 µM
  TGI: 33 µM
[3]
  GI50: 10.2 µM
  TGI: 28.2 µM
[4]
  GI50: 2.27 µM
  TGI: 5.67 µM
[5]
  GI50: 1.53 µM
  TGI: 3.15 µM
[6]
  GI50: 3.24 µM
  TGI: 11.3 µM
[7]
  GI50: 2.24 µM
  TGI: 15.9 µM
[8]
  GI50: 2.04 µM
  TGI: 3.94 µM
[9]
  GI50: 4.33 µM
  TGI: 15.4 µM
[10]
  GI50: 2.11 µM
  TGI: 4.92 µM
[11]
  GI50: 8.69 µM
  TGI: 21.7 µM
[12]
  GI50: 2.31 µM
  TGI: 8.15 µM
[13]
  GI50: 1.74 µM
  TGI: 3.78 µM
[14]
  GI50: 2.04 µM
  TGI: 6.05 µM
[15]
  GI50: 3.23 µM
  TGI: 8.5 µM
[16]
  GI50: 2.08 µM
  TGI: 6.48 µM
[17]
  GI50: 3.79 µM
  TGI: 54 µM
[18]
  GI50: 2.27 µM
  TGI: 4.63 µM
[19]
  GI50: 3.51 µM
  TGI: 13.9 µM
[20]
  GI50: 2.77 µM
  TGI: > 100 µM
[21]
  GI50: 4.64 µM
  TGI: 18.5 µM
[22]
  GI50: 2.45 µM
  TGI: 10.4 µM
[23]
  GI50: 1.77 µM
  TGI: 4.38 µM
[24]
  GI50: 2.11 µM
  TGI: 6.35 µM
[25]
  GI50: 2.15 µM
  TGI: 7.67 µM
[26]
  GI50: 4.84 µM
  TGI: 19.5 µM
[27]
  GI50: 3.54 µM
  TGI: 13.2 µM
[28]
  GI50: 1.73 µM
  TGI: 3.9 µM
[29]
  GI50: 2.21 µM
  TGI: 11.5 µM
[30]
  GI50: 2.66 µM
  TGI: 12.2 µM
[31]
  GI50: 2.08 µM
  TGI: 6.5 µM
[32]
  GI50: 4.22 µM
  TGI: 19.8 µM
[33]
  GI50: 1.53 µM
  TGI: 3.07 µM
[34]
  GI50: 2.44 µM
  TGI: 6.66 µM
[35]
  GI50: 2.94 µM
  TGI: 10.4 µM
[36]
  GI50: 3.72 µM
  TGI: 13.7 µM
[37]
  GI50: 2.48 µM
  TGI: 5.7 µM
[38]
  GI50: 3.81 µM
  TGI: 35.4 µM
[39]
  GI50: 2.48 µM
  TGI: 10.8 µM
[40]
  GI50: 2.65 µM
  TGI: 11.8 µM
[41]
  GI50: 1.61 µM
  TGI: 3.82 µM
[42]
  GI50: 3.1 µM
  TGI: 12.3 µM
[43]
  GI50: 5.54 µM
  TGI: 18.2 µM
[44]
  GI50: 1.77 µM
  TGI: 3.33 µM
[45]
  GI50: 2.01 µM
  TGI: 4.92 µM
[46]
  GI50: 3.69 µM
  TGI: 14.7 µM
[47]
  GI50: 1.85 µM
  TGI: 3.79 µM
[48]
  GI50: 4.1 µM
  TGI: 12.6 µM
[49]
  GI50: 2.4 µM
  TGI: 6.5 µM
[50]
  GI50: 4.41 µM
  TGI: 16.8 µM
[51]
  GI50: 3.23 µM
  TGI: 13.4 µM
[52]
  GI50: 2.51 µM
  TGI: 12.7 µM
[53]
  GI50: 3.33 µM
  TGI: 13.2 µM
[54]
  GI50: 2.89 µM
  TGI: 11.3 µM
[55]
  GI50: 8.18 µM
  TGI: 21.3 µM
[56]
  GI50: 2 µM
  TGI: 4.59 µM
[57]
  GI50: 2.59 µM
  TGI: 12.7 µM
[58]
  GI50: 3.57 µM
  TGI: 16.4 µM
[59]
  GI50: 4.95 µM
  TGI: 17.4 µM

## CC(=O)Oc1ccccc1C(=O)Oc1ccc(C(=O)/C=C/c2ccncc2)cc1
[1]
  GI50: 16.1 µM
  TGI: > 100 µM
[2]
  GI50: 20.5 µM
  TGI: 71.4 µM
[3]
  GI50: 15.1 µM
  TGI: > 100 µM
[4]
  GI50: 15.6 µM
  TGI: 44.9 µM
[5]
  GI50: 17 µM
  TGI: 38.7 µM
[6]
  GI50: 19.3 µM
  TGI: > 100 µM
[7]
  GI50: 2.38 µM
  TGI: > 100 µM
[8]
  GI50: 12.7 µM
  TGI: 40.5 µM
[9]
  GI50: 10.5 µM
  TGI: 44.1 µM
[10]
  GI50: 14.7 µM
  TGI: 45.7 µM
[11]
  GI50: 4.83 µM
  TGI: 16.4 µM
[13]
  GI50: 3.55 µM
  TGI: 18.8 µM
[14]
  GI50: 4.93 µM
  TGI: 34.1 µM
[15]
  GI50: 27.5 µM
  TGI: > 100 µM
[16]
  GI50: 21.1 µM
  TGI: > 100 µM
[17]
  GI50: 22.5 µM
  TGI: > 100 µM
[18]
  GI50: 3.6 µM
  TGI: 20.1 µM
[19]
  GI50: 7.4 µM
  TGI: 54 µM
[20]
  GI50: 2.29 µM
  TGI: > 100 µM
[21]
  GI50: 3.57 µM
  TGI: 22.2 µM
[22]
  GI50: 1.96 µM
  TGI: 5.87 µM
[23]
  GI50: 14.5 µM
  TGI: > 100 µM
[24]
  GI50: 16.5 µM
  TGI: 51.4 µM
[25]
  GI50: 1.1 µM
  TGI: 9.24 µM
[26]
  GI50: 8.6 µM
  TGI: 36.2 µM
[27]
  GI50: 4.45 µM
  TGI: 44.3 µM
[28]
  GI50: 2.36 µM
  TGI: 8.34 µM
[29]
  GI50: 15.9 µM
  TGI: 85.9 µM
[30]
  GI50: 26.4 µM
  TGI: > 100 µM
[31]
  GI50: 10.8 µM
  TGI: 30.8 µM
[32]
  GI50: 11.2 µM
  TGI: 48.9 µM
[33]
  GI50: 4.85 µM
  TGI: 21.5 µM
[34]
  GI50: 20.7 µM
  TGI: > 100 µM
[35]
  GI50: 5.3 µM
  TGI: 26 µM
[36]
  GI50: 29.7 µM
  TGI: > 100 µM
[37]
  GI50: 24.9 µM
  TGI: 99.1 µM
[38]
  GI50: 24.9 µM
  TGI: > 100 µM
[39]
  GI50: 10.4 µM
  TGI: > 100 µM
[40]
  GI50: 1.58 µM
  TGI: 7.19 µM
[41]
  GI50: 5.25 µM
  TGI: 20.8 µM
[42]
  GI50: 25 µM
  TGI: > 100 µM
[43]
  GI50: 8.56 µM
  TGI: 58.1 µM
[44]
  GI50: 4.29 µM
  TGI: 17.4 µM
[45]
  GI50: 32.5 µM
  TGI: > 100 µM
[46]
  GI50: 19.3 µM
  TGI: 62.1 µM
[47]
  GI50: 12.4 µM
  TGI: 29.5 µM
[48]
  GI50: 30.9 µM
  TGI: > 100 µM
[49]
  GI50: 10.1 µM
  TGI: 45.5 µM
[50]
  GI50: 15.3 µM
  TGI: 47.3 µM
[51]
  GI50: 15.8 µM
  TGI: > 100 µM
[52]
  GI50: 0.407 µM
  TGI: > 100 µM
[53]
  GI50: 3.04 µM
  TGI: 18.9 µM
[54]
  GI50: 23.8 µM
  TGI: 97.6 µM
[55]
  GI50: 37.4 µM
  TGI: > 100 µM
[56]
  GI50: 3.77 µM
  TGI: 70.8 µM
[57]
  GI50: 16.9 µM
  TGI: 63.4 µM
[58]
  GI50: 16.6 µM
  TGI: 42.3 µM
[59]
  GI50: 10.3 µM
  TGI: 24 µM
